The target of one data set is T1, CDC2L5 (Homo sapiens, UniProt Q14004).
T1 construct: purchased DiscoverX scanMAX Kinase panel
The experiment in a line: scanMAX Kinase panel (DiscoverX). The data set is classed as binding. How it is done: Among the example compounds of the present invention, the enzyme (kinase) selectivity of the selected compounds of Examples 1 and 4 was measured by requesting DiscoverX. At this time, the experiment was performed using a panel for scanMAX™ Kinase. The concentration of the drug treated to the enzyme was 1 μM in DMSO, and the percentage control (% control) was determined by the method shown in Equation 1 below. (Example Compound−Positive Control)/(Negative Control−Positive control)×100 [Equation 1]
In addition, if the enzyme selectivity of the compound of the present invention was less than the percentage control of 35% (<35%) for each enzyme, it was judged to have activity for the enzyme.

Another data set concerns the target T2, ABL1-nonphosphorylated (Homo sapiens, UniProt P00519).
T2 construct: purchased DiscoverX scanMAX Kinase panel
Briefly: scanMAX Kinase panel (DiscoverX). The data set is classed as binding. Particulars: read-out: % Cont @ 1 uM. In short, it runs like this: (§1)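 Values are % control at 1 μM compound (in DMSO), scaled against positive- and negative-control wells.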

Another data set addresses T3, BLK (Homo sapiens, UniProt P51451).
T3 construct: purchased DiscoverX scanMAX Kinase panel
Briefly: scanMAX Kinase panel (DiscoverX). Conditions: read-out: % Cont @ 1 uM. The format is binding. In outline: as §1

In the next data set the target is T4, EGFR(L747-T751del, Sins) (Homo sapiens, UniProt P00533, DEL747-750/T751S).
T4 construct: purchased DiscoverX scanMAX Kinase panel
The experiment in a line: scanMAX Kinase panel (DiscoverX). The data set is classed as binding. In short, it runs like this: as §1

The target of the next data set is T5, EPHA7 (Homo sapiens, UniProt Q15375).
T5 construct: purchased DiscoverX scanMAX Kinase panel
Briefly: scanMAX Kinase panel (DiscoverX). The data set is classed as binding. Particulars: read-out: % Cont @ 1 uM. In outline: as §1

A further data set addresses T6, FGFR2 (Homo sapiens, UniProt P21802).
T6 construct: purchased DiscoverX scanMAX Kinase panel
The experiment in a line: scanMAX Kinase panel (DiscoverX). The format is binding. Particulars: read-out: % Cont @ 1 uM. In outline: as §1

For a further data set, the target named is T7, FLT3(D835Y) (Homo sapiens, UniProt P36888, D835Y).
T7 construct: purchased DiscoverX scanMAX Kinase panel
Briefly: scanMAX Kinase panel (DiscoverX). The data set is classed as binding. Particulars: read-out: % Cont @ 1 uM. In short, it runs like this: as §1

Another data set addresses T8, FLT3(K663Q) (Homo sapiens, UniProt P36888, K663Q).
T8 construct: purchased DiscoverX scanMAX Kinase panel
The experiment in a line: scanMAX Kinase panel (DiscoverX). Particulars: read-out: % Cont @ 1 uM. The format is binding. In short, it runs like this: as §1

The target in the next data set is T9, KIT (Homo sapiens, UniProt P10721).
T9 construct: purchased DiscoverX scanMAX Kinase panel
Briefly: scanMAX Kinase panel (DiscoverX). The data set is classed as binding. Conditions: read-out: % Cont @ 1 uM. In outline:
as §1

The target in a further data set is T10, KIT(D816H) (Homo sapiens, UniProt P10721, D816H).
T10 construct: purchased DiscoverX scanMAX Kinase panel
The experiment in a line: scanMAX Kinase panel (DiscoverX). The data set is classed as binding. Conditions: read-out: % Cont @ 1 uM. In short, it runs like this: as §1

A further data set addresses T11, LOK (Homo sapiens, UniProt O94804).
T11 construct: purchased DiscoverX scanMAX Kinase panel
Briefly: scanMAX Kinase panel (DiscoverX). The data set is classed as binding. In short, it runs like this:
as §1

The next data set addresses T12, MAP4K2 (Homo sapiens, UniProt Q12851).
T12 construct: purchased DiscoverX scanMAX Kinase panel
The experiment in a line: scanMAX Kinase panel (DiscoverX). Conditions: read-out: % Cont @ 1 uM. The data set is classed as binding. In short, it runs like this: as §1

The next data set addresses T13, MET(Y1235D) (Homo sapiens, UniProt P08581, Y1235D).
T13 construct: purchased DiscoverX scanMAX Kinase panel
Briefly: scanMAX Kinase panel (DiscoverX). The data set is classed as binding. In short, it runs like this:
as §1

The target in another data set is T14, RET (Homo sapiens, UniProt P07949).
T14 construct: purchased DiscoverX scanMAX Kinase panel
Briefly: scanMAX Kinase panel (DiscoverX). The format is binding. Particulars: read-out: % Cont @ 1 uM. In outline:
as §1

The next data set concerns the target T15, TESK1 (Homo sapiens, UniProt Q15569).
T15 construct: purchased DiscoverX scanMAX Kinase panel
The experiment in a line: scanMAX Kinase panel (DiscoverX). The format is binding. Particulars: read-out: % Cont @ 1 uM. In outline: as §1

A further data set has as its system KOPM28 cells. Briefly: human CML cell proliferation inhibition. The format is cell-based. Particulars: 72 hours, Cell Counting Kit-8. In outline: (§2)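 Bcr-Abl TCCS and KOPM28 cells, plus their T315I-Bcr-Abl counterparts, are treated with compound (final 0–10 μM, 5-fold steps) for 72 h at 37 °C. Viability is measured by CCK-8 at 450 nm, and GI50 is computed as percent of DMSO control.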

The test system of another data set is T315I-KOPM28 cells. Briefly: human CML cell proliferation inhibition. The format is cell-based. Conditions: 72 hours, Cell Counting Kit-8. In short, it runs like this: as §2
The next data set concerns T315I-TCCS cells. Briefly: human CML cell proliferation inhibition. The format is cell-based. Conditions: 72 hours, Cell Counting Kit-8. In short, it runs like this: as §2
The subject of another data set is TCCS cells. Briefly: human CML cell proliferation inhibition. The data set is classed as cell-based. Conditions: 72 hours, Cell Counting Kit-8. In outline: as §2
Data set [1] can be described thus: oral pharmacokinetic test. Conditions: ICR, mouse, plasma, 10 mg/kg, 10 mg/Kg PO. The data set is classed as in vivo, ICR mice. How it is done:
To evaluate the pharmacokinetic properties in vivo, oral pharmacokinetic test was performed with the compounds of Comparative Examples 1 and 4 and Examples 1 and 4 using mice and rats, and the PK parameters are shown in Table 10.
ICR mice (6-7 weeks old) and SD rats (6-7 weeks old) were used for the test. The fasted group was fasted about 16 hours before oral administration, and the fed group was fasted about 4 hours before oral administration. The test drug for oral administration was used by dissolving the drug in a vehicle at a concentration of 1 mg/mL for use, and blood samples were collected (time point: 0.25, 0.5, 1, 2, 4, 8, 12, 24, 32, n=3) from the heart (mouse, 500 μL/time point) or jugular vein (rat, 120 μL/time point). Blood was centrifuged at 12,000 G at 4° C. for 2 minutes to separate plasma, and stored at −80° C. until analysis. • Vehicle A (NMP:PEG400=5:95) • Vehicle B (0.5% methyl cellulose) 6-2. Sampling and Pretreatment
To 20 μl of plasma, 180 μl of acetonitrile (including internal standard) was added. The mixture was vortexed and centrifuged for 5 minutes at 15,000 rpm at 4° C. The supernatant obtained after centrifugation was analyzed by LC-MS/MS.
PK parameters were calculated with a non-compartmental analysis model using Phoenix WinNonlin 6.4 version (Pharsight, USA) program.

The mark [2] stands for this setting: vehicle B (0.5% methyl cellulose).

Molecules are shown by their SMILES. Some results are limits rather than exact numbers.

Consider two compounds from patent US12673945B2, “3-((8-((1H-pyrazol-4-yl)amino)imidazo[1,2-a]pyridin-3-yl)ethinyl)-n-phenylbenzamide derivative, method for preparing same, and pharmaceutical composition containing same as active ingredient for prevention or treatment of cancer” (DAEGU-GYEONGBUK MEDICAL INNOVATION FOUNDATION, priority 2020, dated 2026).

T14 sequence (P07949 29-1114): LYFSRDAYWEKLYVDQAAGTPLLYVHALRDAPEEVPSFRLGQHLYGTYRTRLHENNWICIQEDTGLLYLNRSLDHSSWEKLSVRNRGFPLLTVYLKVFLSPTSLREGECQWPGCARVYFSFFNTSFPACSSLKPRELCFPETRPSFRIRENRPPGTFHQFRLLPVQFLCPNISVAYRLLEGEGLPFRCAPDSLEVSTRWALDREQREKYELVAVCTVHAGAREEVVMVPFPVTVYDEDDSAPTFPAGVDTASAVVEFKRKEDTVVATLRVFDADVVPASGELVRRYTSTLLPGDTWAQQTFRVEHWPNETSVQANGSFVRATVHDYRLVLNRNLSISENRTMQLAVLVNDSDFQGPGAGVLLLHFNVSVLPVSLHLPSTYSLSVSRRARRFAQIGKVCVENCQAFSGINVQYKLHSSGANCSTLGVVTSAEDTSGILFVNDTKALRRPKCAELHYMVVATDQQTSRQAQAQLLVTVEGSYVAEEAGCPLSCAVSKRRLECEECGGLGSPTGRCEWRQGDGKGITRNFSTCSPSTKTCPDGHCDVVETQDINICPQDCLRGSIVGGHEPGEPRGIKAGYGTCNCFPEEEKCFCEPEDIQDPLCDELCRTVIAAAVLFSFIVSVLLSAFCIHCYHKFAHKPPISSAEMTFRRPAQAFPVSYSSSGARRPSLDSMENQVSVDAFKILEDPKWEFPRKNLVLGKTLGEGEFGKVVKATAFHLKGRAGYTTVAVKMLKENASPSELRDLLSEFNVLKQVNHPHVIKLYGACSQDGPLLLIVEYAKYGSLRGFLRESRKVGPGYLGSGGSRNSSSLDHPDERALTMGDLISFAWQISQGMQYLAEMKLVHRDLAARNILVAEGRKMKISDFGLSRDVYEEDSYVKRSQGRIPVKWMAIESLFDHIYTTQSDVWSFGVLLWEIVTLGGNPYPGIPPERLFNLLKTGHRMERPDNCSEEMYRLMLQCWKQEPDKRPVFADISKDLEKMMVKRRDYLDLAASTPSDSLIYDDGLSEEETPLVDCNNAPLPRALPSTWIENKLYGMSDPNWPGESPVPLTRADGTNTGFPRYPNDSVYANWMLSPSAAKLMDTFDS
T5 sequence (Q15375 28-998): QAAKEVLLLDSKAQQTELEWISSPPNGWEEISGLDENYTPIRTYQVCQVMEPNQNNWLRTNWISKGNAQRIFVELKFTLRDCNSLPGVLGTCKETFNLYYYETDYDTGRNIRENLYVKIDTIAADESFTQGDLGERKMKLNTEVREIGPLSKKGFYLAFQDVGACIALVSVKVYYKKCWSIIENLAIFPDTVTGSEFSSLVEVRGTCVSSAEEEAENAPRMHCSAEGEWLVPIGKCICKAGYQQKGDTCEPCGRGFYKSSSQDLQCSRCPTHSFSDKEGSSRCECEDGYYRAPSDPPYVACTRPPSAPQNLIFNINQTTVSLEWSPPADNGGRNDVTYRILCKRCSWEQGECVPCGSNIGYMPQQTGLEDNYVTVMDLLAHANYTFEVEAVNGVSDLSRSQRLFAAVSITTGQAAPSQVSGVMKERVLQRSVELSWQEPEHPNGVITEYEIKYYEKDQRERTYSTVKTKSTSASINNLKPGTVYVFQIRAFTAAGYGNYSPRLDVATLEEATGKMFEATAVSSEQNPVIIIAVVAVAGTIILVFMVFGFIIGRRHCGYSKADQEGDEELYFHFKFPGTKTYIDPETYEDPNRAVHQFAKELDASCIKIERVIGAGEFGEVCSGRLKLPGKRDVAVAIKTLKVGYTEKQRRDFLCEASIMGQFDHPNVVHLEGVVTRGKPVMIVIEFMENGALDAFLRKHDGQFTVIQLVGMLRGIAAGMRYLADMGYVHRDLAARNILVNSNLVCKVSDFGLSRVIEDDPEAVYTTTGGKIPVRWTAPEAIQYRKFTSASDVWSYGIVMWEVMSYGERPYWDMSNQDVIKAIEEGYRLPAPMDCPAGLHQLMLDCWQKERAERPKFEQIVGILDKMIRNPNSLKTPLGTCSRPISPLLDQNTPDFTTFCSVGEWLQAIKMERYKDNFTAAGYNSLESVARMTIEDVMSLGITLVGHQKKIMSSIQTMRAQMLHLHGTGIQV
T3 sequence (P51451 whole entry): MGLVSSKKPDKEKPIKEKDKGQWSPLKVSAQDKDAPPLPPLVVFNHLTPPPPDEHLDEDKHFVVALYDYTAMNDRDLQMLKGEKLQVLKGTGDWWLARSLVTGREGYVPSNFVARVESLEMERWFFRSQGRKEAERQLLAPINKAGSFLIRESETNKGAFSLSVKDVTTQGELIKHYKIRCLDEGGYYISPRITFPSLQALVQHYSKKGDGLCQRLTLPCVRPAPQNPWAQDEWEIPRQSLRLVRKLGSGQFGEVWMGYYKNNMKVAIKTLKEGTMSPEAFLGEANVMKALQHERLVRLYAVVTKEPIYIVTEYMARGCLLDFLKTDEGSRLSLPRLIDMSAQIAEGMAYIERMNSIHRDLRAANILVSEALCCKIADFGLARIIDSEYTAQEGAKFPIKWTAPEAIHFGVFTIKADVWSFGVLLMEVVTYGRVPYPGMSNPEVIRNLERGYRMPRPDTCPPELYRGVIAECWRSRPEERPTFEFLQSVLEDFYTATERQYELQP
T9 sequence (P10721 26-976): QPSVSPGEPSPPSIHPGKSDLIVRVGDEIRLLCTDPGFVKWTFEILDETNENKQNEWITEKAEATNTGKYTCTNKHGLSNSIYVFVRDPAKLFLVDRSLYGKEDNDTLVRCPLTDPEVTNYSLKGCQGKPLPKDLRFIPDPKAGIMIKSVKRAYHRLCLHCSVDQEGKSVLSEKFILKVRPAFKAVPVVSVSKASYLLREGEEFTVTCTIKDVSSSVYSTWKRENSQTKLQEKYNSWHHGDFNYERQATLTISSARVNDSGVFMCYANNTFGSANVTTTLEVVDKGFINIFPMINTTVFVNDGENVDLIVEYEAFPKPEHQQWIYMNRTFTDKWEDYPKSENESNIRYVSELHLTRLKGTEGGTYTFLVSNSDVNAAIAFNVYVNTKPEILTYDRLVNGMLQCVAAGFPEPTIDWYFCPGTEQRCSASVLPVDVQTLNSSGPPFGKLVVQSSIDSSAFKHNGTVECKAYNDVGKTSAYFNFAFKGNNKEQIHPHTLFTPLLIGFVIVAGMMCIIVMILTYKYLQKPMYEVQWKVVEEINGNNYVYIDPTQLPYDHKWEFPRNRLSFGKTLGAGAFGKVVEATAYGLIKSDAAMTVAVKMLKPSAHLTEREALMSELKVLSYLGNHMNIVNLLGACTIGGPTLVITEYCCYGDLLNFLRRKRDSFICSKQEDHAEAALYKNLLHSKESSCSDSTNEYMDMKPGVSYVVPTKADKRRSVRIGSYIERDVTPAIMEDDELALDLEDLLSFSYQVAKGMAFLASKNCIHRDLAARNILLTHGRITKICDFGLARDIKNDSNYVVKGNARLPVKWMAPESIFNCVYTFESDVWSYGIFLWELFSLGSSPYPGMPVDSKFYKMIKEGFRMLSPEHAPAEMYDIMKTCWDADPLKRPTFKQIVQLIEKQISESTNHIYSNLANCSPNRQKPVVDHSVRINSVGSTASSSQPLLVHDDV
T2 sequence (P00519 whole entry): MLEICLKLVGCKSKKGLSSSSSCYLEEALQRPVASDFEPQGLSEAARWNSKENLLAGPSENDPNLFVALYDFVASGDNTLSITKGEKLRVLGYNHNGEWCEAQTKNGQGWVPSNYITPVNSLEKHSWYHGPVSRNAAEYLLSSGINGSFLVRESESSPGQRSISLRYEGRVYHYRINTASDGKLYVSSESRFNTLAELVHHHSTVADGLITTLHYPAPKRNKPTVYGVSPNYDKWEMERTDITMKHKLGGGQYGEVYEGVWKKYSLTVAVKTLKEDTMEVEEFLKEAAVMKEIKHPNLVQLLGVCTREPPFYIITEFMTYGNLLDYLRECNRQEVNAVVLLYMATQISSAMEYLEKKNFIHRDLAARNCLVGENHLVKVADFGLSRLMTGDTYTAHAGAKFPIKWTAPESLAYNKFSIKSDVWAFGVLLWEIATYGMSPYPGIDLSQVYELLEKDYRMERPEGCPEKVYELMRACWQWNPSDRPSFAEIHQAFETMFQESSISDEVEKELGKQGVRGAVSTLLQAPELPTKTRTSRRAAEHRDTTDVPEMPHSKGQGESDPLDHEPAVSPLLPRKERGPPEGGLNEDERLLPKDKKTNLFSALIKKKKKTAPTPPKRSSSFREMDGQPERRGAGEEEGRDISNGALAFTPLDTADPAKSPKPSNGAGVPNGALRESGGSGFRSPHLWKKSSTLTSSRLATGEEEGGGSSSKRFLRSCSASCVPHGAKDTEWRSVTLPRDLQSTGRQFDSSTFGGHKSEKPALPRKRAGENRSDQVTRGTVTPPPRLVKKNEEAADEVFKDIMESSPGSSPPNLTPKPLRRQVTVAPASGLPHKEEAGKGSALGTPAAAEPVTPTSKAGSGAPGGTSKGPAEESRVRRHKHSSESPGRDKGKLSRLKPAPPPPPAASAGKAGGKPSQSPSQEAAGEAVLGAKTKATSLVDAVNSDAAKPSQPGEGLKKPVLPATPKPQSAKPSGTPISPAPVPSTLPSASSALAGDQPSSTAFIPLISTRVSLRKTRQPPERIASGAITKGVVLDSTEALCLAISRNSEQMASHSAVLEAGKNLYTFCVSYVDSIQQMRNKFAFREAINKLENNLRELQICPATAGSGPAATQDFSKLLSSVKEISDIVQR
T10 sequence (P10721 26-976 D816H): as the sequence (P10721 26-976) above, with D791H counted along it

As to `Cc1cn(-c2cc(NC(=O)c3cc(C#Cc4cnc5c(Nc6cnn(C)c6)cccn45)c(C)cc3F)cc(C(F)(F)F)c2)cn1` [Example 4, 2-fluoro-4-methyl-N-(3-(4-methyl-1H-imidazol-1-yl)-5-(trifluoromethyl)phenyl)-5-((8-((1-methyl-1H-pyrazol-4-yl)amino)imidazo[1,2-a]pyridin-3-yl)ethynyl)benzamide], the “% Cont @ 1 uM” value worked out at 60% on CDC2L5; 28% at EGFR(L747-T751del, Sins); 0.2% at LOK; 87% on MET(Y1235D). The remaining binding at 1 µM came to 5.6% at ABL1-nonphosphorylated; 0.4% at BLK; 63% at EPHA7; 61% at FGFR2; 22% at FLT3(D835Y); 2.8% on FLT3(K663Q). Further, the remaining binding at 1 µM on MAP4K2 came out at 70%; on RET it was 0.2%; on TESK1 it was 100%. The percent of control binding at 1 µM was 1.6% at KIT and 53% at KIT(D816H). For the same compound, the GI50 in the data set on KOPM28 cells was 100 nM; in the data set with T315I-KOPM28 cells, 100 nM; with T315I-TCCS cells it was 100 nM; with TCCS cells, less than 10 nM. The compound further showed an AUC(0-t) in [1] (setting [2]) of 30400 ng·h/mL. The concentration in data set [1] (setting [2]) peaked (Cmax) at 3360 ng/mL. In [1] (setting [2]), this compound gave a half-life of 2.1 h.
On to `Cc1cn(-c2cc(NC(=O)c3cc(C#Cc4cnc5c(Nc6cnn(C)c6)cccn45)c(C)cc3F)cc(C(C)(C)C#N)c2)cn1` [Example 1, N-(3-(2-cyanopropane-2-yl)-5-(4-methyl-1H-imidazol-1-yl)phenyl)-2-fluoro-4-methyl-5-((8-((1-methyl-1H-pyrazol-4-yl)amino)imidazo[1,2-a]pyridin-3-yl)ethynyl)benzamide], for which the “% Cont @ 1 uM” value on CDC2L5 came out at 21%; at EGFR(L747-T751del, Sins), 11%; at LOK it was 0.05%; on MET(Y1235D) it was 17%. Further, the remaining binding at 1 µM stood at 1.9% at ABL1-nonphosphorylated; 0.05% on BLK; 16% at EPHA7; 30% on FGFR2; 14% on FLT3(D835Y); 10.8% on FLT3(K663Q). Moreover, the remaining binding at 1 µM on MAP4K2 is 2.5%; at RET it was 0%; on TESK1 it was 33%. Besides, the percent of control binding at 1 µM amounted to 0% at KIT and 12% at KIT(D816H). For the same compound, the GI50 with KOPM28 cells is less than 10 nM; in the data set on T315I-KOPM28 cells, 100 nM; in the data set on T315I-TCCS cells it was less than 10 nM; in the data set on TCCS cells, less than 10 nM. Also, the AUC(0-t) in [1] (vehicle A (NMP:PEG400=5:95)) came out at 138000 ng·h/mL; in [1] (setting [2]), 80300 ng·h/mL. The Cmax amounted to 8570 ng/mL in data set [1] (vehicle A (NMP:PEG400=5:95)) and 10000 ng/mL in [1] (setting [2]). Moreover, the half-life in [1] (vehicle A (NMP:PEG400=5:95)) was 2.5 h; in [1] (setting [2]) it was 2.4 h.
